# Laboratory results published in patent US8883681B2, “Sugarcane harvest aid” (FMC Corporation, priority 2004, dated 2014).
# System: sugarcane, variety RB 81-5156 (plant-cane)
# Assay: Evaluation of carfentrazone-ethyl as a sugarcane ripener (field trial, stems harvested 0-45 DAA; % POL, % BRIX, % PURITY)
# Format: in vivo
# Details: average of four replications
# Method: The following example further illustrates the present invention, but, of course, should not be construed as in any way limiting its scope. The example includes a protocol for the evaluation of certain PPO-inhibiting compounds as ripeners on sugarcane crops, and sets forth certain data indicating the effectiveness of such compounds. Yield is measured in % POL, which is the percent saccharose content in the pressed broth or the cane. Purity and % BRIX (defined as total sugar content including glucose, fructose, saccharose and minerals) are also measures of crop yield, although the saccharose content is of primary concern.
# The trial was performed on sugarcane, variety RB 81-5156 (plant-cane). The sugarcane was planted with spacing of 1.40 m between rows, using 30 kg/ha of N; 100 kg/ha of P2O5 and 80 gk/ha of K2O as basic fertilizers, complemented by a covering application of 30 kg/ha of N.
# The application of ripeners was performed with pressurized back-pack sprayers, with flat fan nozzle 110.01. The flow was 65 l/ha and the pressure was 35 lb/in^2.
# The experimental design used randomized plots with 6 treatments and 4 replications. The size of each experimental plot was 126 m^2 (6 spacing lines of 1.40 m per 15 m of length).
# The climatic conditions at the time of the ripener applications were: average temperature of 27° C.; air relative humidity of 73%, wind speed of 4 km/hour.
# One linear meter of stems was harvested in each experimental plot at 0 (zero), 15, 30 and 45 days after application (DAA) of the ripener. The sugar was extracted from these stems and submitted for GC and refractometer analysis of percent saccharose, glucose, fructose and minerals corresponding to % POL, % BRIX and % PURITY.
# The results, shown as an average of four replications, were compared with results observed in the same trials with trinexapac-ethyl (Moddus).
compound,measurement,setting,value
"CCOC(=O)C(Cl)Cc1cc(-n2nc(C)n(C(F)F)c2=O)c(F)cc1Cl (stereo not drawn) [Carfentrazone-ethyl, ethyl α,2-dichloro-5-[4-(difluoromethyl)-4,5-dihydro-3-methyl-5-oxo-1H-1,2,4-triazol-1-yl]-4-fluorobenzenepropanoate]",% BRIX in Pressed Broth of Sugarcane Crop after Application of Ripeners,"30 g ai/ha, 0 DAA",14.80%
same,% POL in Pressed Broth of Sugarcane Crop after Application of Ripeners,"30 g ai/ha, 0 DAA",11.90%
same,% POL in the Cane of Sugarcane Crop after Application of Ripeners,"30 g ai/ha, 0 DAA",10.38%
same,% PURITY in Pressed Broth of Sugarcane Crop after Application of Ripeners,"30 g ai/ha, 0 DAA",78.48%
same,% BRIX in Pressed Broth of Sugarcane Crop after Application of Ripeners,"30 g ai/ha, 15 DAA",15.40%
same,% POL in Pressed Broth of Sugarcane Crop after Application of Ripeners,"30 g ai/ha, 15 DAA",12.35%
same,% POL in the Cane of Sugarcane Crop after Application of Ripeners,"30 g ai/ha, 15 DAA",10.68%
same,% PURITY in Pressed Broth of Sugarcane Crop after Application of Ripeners,"30 g ai/ha, 15 DAA",79.10%
same,% BRIX in Pressed Broth of Sugarcane Crop after Application of Ripeners,"30 g ai/ha, 30 DAA",16.15%
same,% POL in Pressed Broth of Sugarcane Crop after Application of Ripeners,"30 g ai/ha, 30 DAA",12.75%
same,% POL in the Cane of Sugarcane Crop after Application of Ripeners,"30 g ai/ha, 30 DAA",10.75%
same,% PURITY in Pressed Broth of Sugarcane Crop after Application of Ripeners,"30 g ai/ha, 30 DAA",79.50%
same,% BRIX in Pressed Broth of Sugarcane Crop after Application of Ripeners,"30 g ai/ha, 45 DAA",16.40%
same,% POL in Pressed Broth of Sugarcane Crop after Application of Ripeners,"30 g ai/ha, 45 DAA",12.20%
same,% POL in the Cane of Sugarcane Crop after Application of Ripeners,"30 g ai/ha, 45 DAA",10.75%
same,% PURITY in Pressed Broth of Sugarcane Crop after Application of Ripeners,"30 g ai/ha, 45 DAA",79.35%
same,% BRIX in Pressed Broth of Sugarcane Crop after Application of Ripeners,"40 g ai/ha, 0 DAA",14.50%
same,% POL in Pressed Broth of Sugarcane Crop after Application of Ripeners,"40 g ai/ha, 0 DAA",12.55%
same,% POL in the Cane of Sugarcane Crop after Application of Ripeners,"40 g ai/ha, 0 DAA",10.38%
same,% PURITY in Pressed Broth of Sugarcane Crop after Application of Ripeners,"40 g ai/ha, 0 DAA",78.90%
same,% BRIX in Pressed Broth of Sugarcane Crop after Application of Ripeners,"40 g ai/ha, 15 DAA",15.50%
same,% POL in Pressed Broth of Sugarcane Crop after Application of Ripeners,"40 g ai/ha, 15 DAA",13.18%
same,% POL in the Cane of Sugarcane Crop after Application of Ripeners,"40 g ai/ha, 15 DAA",10.63%
same,% PURITY in Pressed Broth of Sugarcane Crop after Application of Ripeners,"40 g ai/ha, 15 DAA",80.28%
same,% BRIX in Pressed Broth of Sugarcane Crop after Application of Ripeners,"40 g ai/ha, 30 DAA",16.98%
same,% POL in Pressed Broth of Sugarcane Crop after Application of Ripeners,"40 g ai/ha, 30 DAA",13.70%
same,% POL in the Cane of Sugarcane Crop after Application of Ripeners,"40 g ai/ha, 30 DAA",10.98%
same,% PURITY in Pressed Broth of Sugarcane Crop after Application of Ripeners,"40 g ai/ha, 30 DAA",81.20%
same,% BRIX in Pressed Broth of Sugarcane Crop after Application of Ripeners,"40 g ai/ha, 45 DAA",16.90%
same,% POL in Pressed Broth of Sugarcane Crop after Application of Ripeners,"40 g ai/ha, 45 DAA",13.58%
same,% POL in the Cane of Sugarcane Crop after Application of Ripeners,"40 g ai/ha, 45 DAA",11.00%
same,% PURITY in Pressed Broth of Sugarcane Crop after Application of Ripeners,"40 g ai/ha, 45 DAA",81.43%
same,% BRIX in Pressed Broth of Sugarcane Crop after Application of Ripeners,"60 g ai/ha, 0 DAA",14.60%
same,% POL in Pressed Broth of Sugarcane Crop after Application of Ripeners,"60 g ai/ha, 0 DAA",12.55%
same,% POL in the Cane of Sugarcane Crop after Application of Ripeners,"60 g ai/ha, 0 DAA",10.63%
same,% PURITY in Pressed Broth of Sugarcane Crop after Application of Ripeners,"60 g ai/ha, 0 DAA",79.35%
same,% BRIX in Pressed Broth of Sugarcane Crop after Application of Ripeners,"60 g ai/ha, 15 DAA",15.20%
same,% POL in Pressed Broth of Sugarcane Crop after Application of Ripeners,"60 g ai/ha, 15 DAA",13.58%
same,% POL in the Cane of Sugarcane Crop after Application of Ripeners,"60 g ai/ha, 15 DAA",11.38%
same,% PURITY in Pressed Broth of Sugarcane Crop after Application of Ripeners,"60 g ai/ha, 15 DAA",81.85%
same,% BRIX in Pressed Broth of Sugarcane Crop after Application of Ripeners,"60 g ai/ha, 30 DAA",17.75%
same,% POL in Pressed Broth of Sugarcane Crop after Application of Ripeners,"60 g ai/ha, 30 DAA",14.50%
same,% POL in the Cane of Sugarcane Crop after Application of Ripeners,"60 g ai/ha, 30 DAA",12.45%
same,% PURITY in Pressed Broth of Sugarcane Crop after Application of Ripeners,"60 g ai/ha, 30 DAA",83.15%
same,% BRIX in Pressed Broth of Sugarcane Crop after Application of Ripeners,"60 g ai/ha, 45 DAA",17.45%
same,% POL in Pressed Broth of Sugarcane Crop after Application of Ripeners,"60 g ai/ha, 45 DAA",14.35%
same,% POL in the Cane of Sugarcane Crop after Application of Ripeners,"60 g ai/ha, 45 DAA",12.38%
same,% PURITY in Pressed Broth of Sugarcane Crop after Application of Ripeners,"60 g ai/ha, 45 DAA",83.15%
same,% BRIX in Pressed Broth of Sugarcane Crop after Application of Ripeners,"80 g ai/ha, 0 DAA",14.50%
same,% POL in Pressed Broth of Sugarcane Crop after Application of Ripeners,"80 g ai/ha, 0 DAA",12.45%
same,% POL in the Cane of Sugarcane Crop after Application of Ripeners,"80 g ai/ha, 0 DAA",10.80%
same,% PURITY in Pressed Broth of Sugarcane Crop after Application of Ripeners,"80 g ai/ha, 0 DAA",80.05%
same,% BRIX in Pressed Broth of Sugarcane Crop after Application of Ripeners,"80 g ai/ha, 15 DAA",15.80%
same,% POL in Pressed Broth of Sugarcane Crop after Application of Ripeners,"80 g ai/ha, 15 DAA",14.08%
same,% POL in the Cane of Sugarcane Crop after Application of Ripeners,"80 g ai/ha, 15 DAA",11.93%
same,% PURITY in Pressed Broth of Sugarcane Crop after Application of Ripeners,"80 g ai/ha, 15 DAA",82.90%
same,% BRIX in Pressed Broth of Sugarcane Crop after Application of Ripeners,"80 g ai/ha, 30 DAA",17.90%
same,% POL in Pressed Broth of Sugarcane Crop after Application of Ripeners,"80 g ai/ha, 30 DAA",15.05%
same,% POL in the Cane of Sugarcane Crop after Application of Ripeners,"80 g ai/ha, 30 DAA",13.25%
same,% PURITY in Pressed Broth of Sugarcane Crop after Application of Ripeners,"80 g ai/ha, 30 DAA",84.45%
same,% BRIX in Pressed Broth of Sugarcane Crop after Application of Ripeners,"80 g ai/ha, 45 DAA",17.80%
same,% POL in Pressed Broth of Sugarcane Crop after Application of Ripeners,"80 g ai/ha, 45 DAA",15.30%
same,% POL in the Cane of Sugarcane Crop after Application of Ripeners,"80 g ai/ha, 45 DAA",13.35%
same,% PURITY in Pressed Broth of Sugarcane Crop after Application of Ripeners,"80 g ai/ha, 45 DAA",84.05%
same,% BRIX in Pressed Broth of Sugarcane Crop after Application of Ripeners,"100 g ai/ha, 0 DAA",14.90%
same,% POL in Pressed Broth of Sugarcane Crop after Application of Ripeners,"100 g ai/ha, 0 DAA",12.50%
same,% POL in the Cane of Sugarcane Crop after Application of Ripeners,"100 g ai/ha, 0 DAA",10.98%
same,% PURITY in Pressed Broth of Sugarcane Crop after Application of Ripeners,"100 g ai/ha, 0 DAA",81.85%
same,% BRIX in Pressed Broth of Sugarcane Crop after Application of Ripeners,"100 g ai/ha, 15 DAA",15.30%
same,% POL in Pressed Broth of Sugarcane Crop after Application of Ripeners,"100 g ai/ha, 15 DAA",14.70%
same,% POL in the Cane of Sugarcane Crop after Application of Ripeners,"100 g ai/ha, 15 DAA",12.25%
same,% PURITY in Pressed Broth of Sugarcane Crop after Application of Ripeners,"100 g ai/ha, 15 DAA",83.78%
same,% BRIX in Pressed Broth of Sugarcane Crop after Application of Ripeners,"100 g ai/ha, 30 DAA",18.25%
same,% POL in Pressed Broth of Sugarcane Crop after Application of Ripeners,"100 g ai/ha, 30 DAA",15.90%
same,% POL in the Cane of Sugarcane Crop after Application of Ripeners,"100 g ai/ha, 30 DAA",13.83%
same,% PURITY in Pressed Broth of Sugarcane Crop after Application of Ripeners,"100 g ai/ha, 30 DAA",86.05%
same,% BRIX in Pressed Broth of Sugarcane Crop after Application of Ripeners,"100 g ai/ha, 45 DAA",18.60%
same,% POL in Pressed Broth of Sugarcane Crop after Application of Ripeners,"100 g ai/ha, 45 DAA",15.75%
same,% POL in the Cane of Sugarcane Crop after Application of Ripeners,"100 g ai/ha, 45 DAA",13.43%
same,% PURITY in Pressed Broth of Sugarcane Crop after Application of Ripeners,"100 g ai/ha, 45 DAA",83.38%
